Test results reported in patent US5932410A, “Assay for the detection of proteases” (Commonwealth Scientific and Industrial Research …, priority 1994, dated 1999).
Where a SMILES comes first, the peptide text is derived from it. The star is where a group is joined. Cbz = O=C(OCc1ccccc1)*

Assays:
Assay type in all cases: biochemical
Chymotrypsin = Chymotrypsin (Bos taurus, UniProt P00766); experiment: Esterase assay, chymotrypsin; conditions: Z-AX-OMe substrate; for Esterase rate, Chymotrypsin: X = P1 residue, rates approximately ± 10%; for % of maximum activity, Chymotrypsin: percentage of the maximum activity
Text: (§1) Advantage was taken of this activity to develop an "esterase" assay which uses a pH indicator to visualise the hydrogen ion release caused by the action of proteases on peptide-ester substrates. A series of twenty compounds of the form, carbobenzoxy alanyl-X-methyl ester (Z-AX-OMe) were synthesised where "X" is one of the naturally occurring amino acids. These substrates were used in a 96 well microtitre plate assay to screen each mutant enzyme for activity and specificity. The reactions were followed visually or quantified using a standard ELISA plate reader. The esterase assay, using trypsin as a test enzyme and Z-Ala-Arg-OMe as substrate, was more sensitive as than traditional trypsin substrates (three times the rate obtained with benzoyl arginine ethyl aster and twenty times the rate of benzoyl arginine p-nitroanilide) (Whittaker et al., Analytical Biochemistry, 220, 238-243, 1994).
(§2) The present inventors produced a panel of substrates carbobenzoxy alanyl-X-methyl eater (Z-AX-OMe) where X is one of the naturally occurring amino acids. The reactivity of these substrates with a number of serine proteases is set out in Table 1 and FIG. 1.
(§3) Rates are A580 change/min./mg protease. Rates are also shown as a […]

Trypsin = experiment: Esterase assay, trypsin; conditions: Z-AX-OMe substrate; for Esterase rate, Trypsin: X = P1 residue, rates approximately ± 10%; for % of maximum activity, Trypsin: percentage of the maximum activity
Text: as §1, §2, §3

Thrombin = Thrombin (Homo sapiens, UniProt P00734); experiment: Esterase assay, thrombin; conditions: Z-AX-OMe substrate; for Esterase rate, Thrombin: X = P1 residue, rates approximately ± 10%; for % of maximum activity, Thrombin: percentage of the maximum activity
Text: as §1, §2, §3

Elastase = Elastase (Sus scrofa, UniProt P00772); experiment: Esterase assay, elastase; conditions: Z-AX-OMe substrate; for Esterase rate, Elastase: X = P1 residue, rates approximately ± 10%; for % activity, Elastase: normalised to alanine
Chain of Elastase (P00772 27-266): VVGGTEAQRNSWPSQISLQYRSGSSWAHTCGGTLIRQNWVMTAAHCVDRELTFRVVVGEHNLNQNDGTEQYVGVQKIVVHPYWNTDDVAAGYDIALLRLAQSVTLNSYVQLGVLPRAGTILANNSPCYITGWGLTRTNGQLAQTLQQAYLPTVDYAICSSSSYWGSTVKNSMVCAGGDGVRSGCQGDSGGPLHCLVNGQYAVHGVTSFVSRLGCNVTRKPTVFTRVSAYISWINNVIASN
Text: as §1, §2, §3

α-Lytic protease = α-Lytic protease (Lysobacter enzymogenes, UniProt P00778); experiment: Esterase assay, α-lytic protease; conditions: Z-AX-OMe substrate; for Esterase rate, α-Lytic protease: X = P1 residue, rates approximately ± 10%; for % activity, α-Lytic protease: normalised to alanine
Chain of α-Lytic protease (P00778 25-397 limits assumed): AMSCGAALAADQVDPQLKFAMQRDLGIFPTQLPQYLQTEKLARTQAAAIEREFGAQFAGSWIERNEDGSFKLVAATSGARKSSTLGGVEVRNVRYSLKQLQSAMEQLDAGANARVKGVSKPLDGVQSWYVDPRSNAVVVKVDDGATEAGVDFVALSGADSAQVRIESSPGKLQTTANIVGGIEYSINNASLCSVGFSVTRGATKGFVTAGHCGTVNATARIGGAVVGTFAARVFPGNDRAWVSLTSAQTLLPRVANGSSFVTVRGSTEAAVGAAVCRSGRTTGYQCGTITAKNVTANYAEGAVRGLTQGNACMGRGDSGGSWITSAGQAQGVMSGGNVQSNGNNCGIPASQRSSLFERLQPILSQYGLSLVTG
Text: as §1, §2, §3

Subtilisin = experiment: Esterase assay, subtilisin; conditions: Z-AX-OMe substrate; for Esterase rate, Subtilisin: X = P1 residue, rates approximately ± 10%; for % of maximum activity, Subtilisin: percentage of the maximum activity
Text: as §1, §2, §3

Proteinase K = Proteinase K (Parengyodontium album, UniProt P06873); experiment: Esterase assay, proteinase K; conditions: Z-AX-OMe substrate; for Esterase rate, Proteinase K: X = P1 residue, rates approximately ± 10%; for % of maximum activity, Proteinase K: percentage of the maximum activity
Chain of Proteinase K (P06873 106-384): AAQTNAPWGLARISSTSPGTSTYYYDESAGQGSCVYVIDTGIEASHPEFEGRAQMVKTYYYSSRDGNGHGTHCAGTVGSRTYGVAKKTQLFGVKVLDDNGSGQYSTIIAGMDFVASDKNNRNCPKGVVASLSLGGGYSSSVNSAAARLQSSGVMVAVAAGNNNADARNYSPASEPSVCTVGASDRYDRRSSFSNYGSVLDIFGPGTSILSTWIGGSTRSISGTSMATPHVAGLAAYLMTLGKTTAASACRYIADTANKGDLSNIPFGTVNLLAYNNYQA
Text: as §1, §2, §3

Compound | Esterase rate, Chymotrypsin (Chymotrypsin) | Esterase rate, Trypsin (Trypsin) | % of maximum activity, Trypsin (Trypsin) | Esterase rate, Thrombin (Thrombin) | % of maximum activity, Thrombin (Thrombin) | Esterase rate, Elastase (Elastase) | % activity, Elastase (Elastase) | Esterase rate, α-Lytic protease (α-Lytic protease) | % activity, α-Lytic protease (α-Lytic protease) | Esterase rate, Subtilisin (Subtilisin) | % of maximum activity, Subtilisin (Subtilisin) | Esterase rate, Proteinase K (Proteinase K) | % of maximum activity, Proteinase K (Proteinase K) | % of maximum activity, Chymotrypsin (Chymotrypsin)
COC(=O)[C@H](C)NC(=O)[C@H](C)NC(=O)OCc1ccccc1 [Ala] (Cbz-Ala-Ala-OMe) | trace | 0 A580 change/min./mg protease | 0% | 0 A580 change/min./mg protease | 0% | 15.7 A580 change/min./mg protease | 100% | 6.2 A580 change/min./mg protease | 100% | 1536 A580 change/min./mg protease | 73.8% | 775 A580 change/min./mg protease | 100% | 
COC(=O)[C@H](CC(N)=O)NC(=O)[C@H](C)NC(=O)OCc1ccccc1 [Asn] (Cbz-Ala-Asn-OMe) | 0.3 A580 change/min./mg protease | 0 A580 change/min./mg protease | 0% | 0 A580 change/min./mg protease | 0% | 0 A580 change/min./mg protease | 0% | 0 A580 change/min./mg protease | 0% | 244 A580 change/min./mg protease | 11.4% | 137 A580 change/min./mg protease | 17.7% | 0.5%
COC(=O)[C@H](CC(=O)O)NC(=O)[C@H](C)NC(=O)OCc1ccccc1 [Asp] (Cbz-Ala-Asp-OMe) | 0 A580 change/min./mg protease | 0 A580 change/min./mg protease | 0% | 0 A580 change/min./mg protease | 0% | 0 A580 change/min./mg protease | 0% | 0 A580 change/min./mg protease | 0% | trace |  | 18 A580 change/min./mg protease | 2.3% | 0%
COC(=O)[C@H](CS)NC(=O)[C@H](C)NC(=O)OCc1ccccc1 [Cys] (Cbz-Ala-Cys-OMe) | 0.4 A580 change/min./mg protease | 0 A580 change/min./mg protease | 0% | 0 A580 change/min./mg protease | 0% | 86.1 A580 change/min./mg protease | 548.4% | 8.5 A580 change/min./mg protease | 137.1% | 1251 A580 change/min./mg protease | 58.2% | 392 A580 change/min./mg protease | 50.6% | 0.7%
COC(=O)[C@H](CCC(N)=O)NC(=O)[C@H](C)NC(=O)OCc1ccccc1 [Gln] (Cbz-Ala-Gln-OMe) | 0.5 A580 change/min./mg protease | 0 A580 change/min./mg protease | 0% | 0 A580 change/min./mg protease | 0% | 0 A580 change/min./mg protease | 0% | 0 A580 change/min./mg protease | 0% | 1308 A580 change/min./mg protease | 60.9% | 553 A580 change/min./mg protease | 71.4% | 0.9%
COC(=O)[C@H](CCC(=O)O)NC(=O)[C@H](C)NC(=O)OCc1ccccc1 [Glu] (Cbz-Ala-Glu-OMe) | 0 A580 change/min./mg protease | 0 A580 change/min./mg protease | 0% | 0 A580 change/min./mg protease | 0% | 0 A580 change/min./mg protease | 0% | 0 A580 change/min./mg protease | 0% | 83 A580 change/min./mg protease | 3.9% | 97 A580 change/min./mg protease | 12.5% | 0%
COC(=O)CNC(=O)[C@H](C)NC(=O)OCc1ccccc1 [Gly] (Cbz-Ala-Gly-OMe) | 0 A580 change/min./mg protease | 0 A580 change/min./mg protease | 0% | 0 A580 change/min./mg protease | 0% | 0 A580 change/min./mg protease | 0% | 0 A580 change/min./mg protease | 0% | 22 A580 change/min./mg protease | 1.0% | 58 A580 change/min./mg protease | 7.5% | 0%
COC(=O)[C@H](Cc1cnc[nH]1)NC(=O)[C@H](C)NC(=O)OCc1ccccc1 [His] (Cbz-Ala-His-OMe) | 1.5 A580 change/min./mg protease | 3.0 A580 change/min./mg protease | 0.8% | trace |  | 0 A580 change/min./mg protease | 0% | 0 A580 change/min./mg protease | 0% | 249 A580 change/min./mg protease | 11.6% | 203 A580 change/min./mg protease | 26.2% | 2.7%
CC[C@H](C)[C@H](NC(=O)[C@H](C)NC(=O)OCc1ccccc1)C(=O)OC [Ile] (Cbz-Ala-Ile-OMe) | 0 A580 change/min./mg protease | 0 A580 change/min./mg protease | 0% | 0 A580 change/min./mg protease | 0% | 1.7 A580 change/min./mg protease | 11.0% | 0 A580 change/min./mg protease | 0% | 16 A580 change/min./mg protease | 0.7% | 5 A580 change/min./mg protease | 0.6% | 0%
COC(=O)[C@H](CC(C)C)NC(=O)[C@H](C)NC(=O)OCc1ccccc1 [Leu] (Cbz-Ala-Leu-OMe) | 2.4 A580 change/min./mg protease | 0 A580 change/min./mg protease | 0% | 0 A580 change/min./mg protease | 0% | 3.4 A580 change/min./mg protease | 21.7% | 0 A580 change/min./mg protease | 0% | 1329 A580 change/min./mg protease | 61.8% | 240 A580 change/min./mg protease | 31.0% | 4.3%
COC(=O)[C@H](CCCCN)NC(=O)[C@H](C)NC(=O)OCc1ccccc1 [Lys] (Cbz-Ala-Lys-OMe) | 1.5 A580 change/min./mg protease | 155.8 A580 change/min./mg protease | 44.0% | 4.3 A580 change/min./mg protease | 49.0% | 0 A580 change/min./mg protease | 0% | 0 A580 change/min./mg protease | 0% | 153 A580 change/min./mg protease | 7.1% | 61 A580 change/min./mg protease | 7.9% | 2.7%
